# Data taken from patent US9163021B2, “Pyrrolo[3,2-c]pyridine tropomyosin-related kinase inhibitors” (Pfizer Limited, priority 2012, dated 2015).
# pIC50: −log10 of the molar value.
# Target: TRKA (Homo sapiens (Human), UniProt P04629)
# Assay: Isolated TRK enzyme assay (HTRF KinEASE-TK), PV3144 TrkA enzyme assay
# Format: biochemical
# Details: arithmetic mean where more than one reading
# Protocol: Isolated TRK Enzyme assays use the HTRF KinEASE-TK kit (Cisbio Cat#62TK0PEJ) with recombinant His-tagged cytoplasmic domains of each TRK receptor sourced from Invitrogen (see table below). This activity-assay measures the phosphorylation of tyrosine residues within a substrate from the HTRF kit which has been validated by Cisbio for a variety of tyrosine kinases including the TRK receptors.
# 0.5 mM stock solutions of test compounds are prepared and serially diluted in 100% DMSO. A standard curve using the compound of Example 135 disclosed in WO2005/116035 of 150 uM is also prepared on each test plate. High percentage effect (HPE) is defined by 150 uM (using the compound of Example 135 as disclosed in WO2005/116035) and 0% effect (ZPE) is defined by 100% DMSO. Greiner low volume black plates containing 0.2 ul of serially diluted compound, standard and HPE/ZPE are created using the Bravo nanoliter dispenser.
# 1× enzyme buffer is prepared from 5× Enzymatic Buffer from the Cisbio KinEASE TK kit using MilliQ water. The buffer is then supplemented with 10 mM MgCI and 2 mM DTT (both from Sigma). In the case of TRKB, the buffer is also supplemented with 125 nM Supplement Enzymatic Buffer (SEB) from the Cisbio kit.
# 2× FAC of enzyme and 2× FAC ATP diluted in 1× complete enzyme buffer is incubated at room temperature for 20 minutes to preactivate the enzyme. Following this preactivation step, 5 ul/well of enzyme+ATP mix is added using a Multidrop Micro to the assay plate, spotted with 0.2 ul 100% DMSO compound. This is left for 20 mins at room temperature before adding 5 ul of 2 uM TK-substrate-Biotin (from the Cisbio kit) diluted in 1× enzyme buffer (1 uM FAC) using the Multidrop Micro. The reaction is incubated at room temperature for the optimized assay reaction time (see table). The reaction is stopped by adding 10 ul/well HTRF Detection Buffer containing 0.25 uM Streptavidin-XL665 (0.125 uM FAC) and 1:200 TK Antibody-Cryptate using a Multidrop.
# After the Detection Reagent addition, plates are covered and incubated at room temperature for 60 minutes. HTRF signal is read using an Envision reader, measured as a ratio of emissions at two different wavelengths, 620 nm and 665 nm. […] Test compound data are expressed as percentage inhibition defined by HPE and ZPE values for each plate. Percentage inhibition in the presence of test compound is plotted against compound concentration on a log scale to determine an IC50 from the resultant sigmoid curve.
# Where more than one reading was taken, the arithmetic mean is presented.
# Sequence of TRKA (P04629 441-796): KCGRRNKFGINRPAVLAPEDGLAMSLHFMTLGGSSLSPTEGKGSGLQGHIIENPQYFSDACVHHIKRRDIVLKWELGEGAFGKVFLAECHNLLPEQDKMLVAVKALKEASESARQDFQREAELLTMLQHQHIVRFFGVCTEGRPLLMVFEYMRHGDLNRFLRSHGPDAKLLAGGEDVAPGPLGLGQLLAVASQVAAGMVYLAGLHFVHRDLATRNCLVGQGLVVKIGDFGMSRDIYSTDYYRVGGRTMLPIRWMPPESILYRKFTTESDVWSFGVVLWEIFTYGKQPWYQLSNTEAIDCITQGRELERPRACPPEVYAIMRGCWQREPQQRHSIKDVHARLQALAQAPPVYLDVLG
row,SMILES,pIC50
1,"CC(C)n1cc(C(=O)c2cc(NC(=O)Cn3cc(C(F)(F)F)nn3)ccn2)c2cncc(F)c21 [Example 83, N-(2-{[7-fluoro-1-(propan-2-yl)-1H-pyrrolo[3,2-c]pyridin-3-yl]carbonyl}pyridin-4-yl)-2[4-(trifluoromethyl)-1H-1,2,3-triazol-1-yl]acetamide]",6.46
2,"CC(CO)n1cc(C(=O)c2cncc(NC(=O)Cn3ccc(C(F)(F)F)n3)c2)c2cnccc21 (stereo not drawn) [Example 60, N-(5-{[1-(1-hydroxypropan-2-yl)-1H-pyrrolo[3,2-c]pyridin-3-yl]carbonyl}pyridin-3-yl)-2-[3-(trifluoromethyl)-1H-pyrazol-1-yl]acetamide]",7.35
3,"CC(C)c1cn(CC(=O)Nc2cncc(C(=O)c3cn(C(C)CO)c4ccncc34)c2)nn1 (single isomer, unassigned) [Example 70, N-(5-{[1-(1-hydroxypropan-2-yl)-1H-pyrrolo[3,2-c]pyridin-3-yl]carbonyl}pyridin-3-yl)-2-[4-(propan-2-yl)-1H-1,2,3-triazol-1-yl]acetamide]",7.18
4,"CC(CO)n1cc(C(=O)c2cncc(NC(=O)Cc3ccc(C(F)(F)F)cc3)c2)c2cncc(F)c21 (single isomer, unassigned) [Example 222, N-(5-{[7-fluoro-1-(1-hydroxypropan-2-yl)-1H-pyrrolo[3,2-c]pyridin-3-yl]carbonyl}pyridin-3-yl)-2-[4-(trifluoromethyl)phenyl]acetamide]",7.79
5,"CC(C)n1cc(C(=O)c2cc(NC(=O)Cc3ccc(Cl)cc3)ccn2)c2cncc(F)c21 [Example 85, 2-(4-chlorophenyl)-N-(2-{[7-fluoro-1-(propan-2-yl)-1H-pyrrolo[3,2-c]pyridin-3-yl]carbonyl}pyridin-4-yl)acetamide]",7.63
6,"Cc1nc(CC(=O)Nc2cncc(C(=O)c3cn(C(C)C)c4ccncc34)c2)c(C2CC2)o1 [Example 24, 2-(5-cyclopropyl-2-methyl-1,3-oxazol-4-yl)-N-(5-{[1-(propan-2-yl)-1H-pyrrolo[3,2-c]pyridin-3-yl]carbonyl}pyridin-3-yl)acetamide]",6.91
7,"CC(C)n1cc(C(=O)c2cncc(NC(=O)Cn3cc(C(F)(F)F)cn3)c2)c2cncc(F)c21 [Example 31, N-(5-{[7-fluoro-1-(propan-2-yl)-1H-pyrrolo[3,2-c]pyridin-3-yl]carbonyl}pyridin-3-yl)-2[4-(trifluoromethyl)-1H-pyrazol-1-yl]acetamide]",8.02
8,"CC(C)n1cc(C(=O)c2cc(NC(=O)Cn3cc(C4CC4)nn3)ccn2)c2cnccc21 [Example 52, 2-(4-cyclopropyl-1H-1,2,3-triazol-1-yl)-N-(2-{[1-(propan-2-yl)-1H-pyrrolo[3,2-c]pyridin-3-yl]carbonyl}pyridin-4-yl)acetamide]",6.86
9,"CC(CO)n1cc(C(=O)c2cncc(NC(=O)Cn3ccc(C(F)(F)F)n3)c2)c2cnccc21 (stereo not drawn) [Example 75, N-(5-{[1-(1-hydroxypropan-2-yl)-1H-pyrrolo[3,2-c]pyridin-3-yl]carbonyl}pyridin-3-yl)-2-[3-(trifluoromethyl)-1H-pyrazol-1-yl]acetamide]",7.35
10,"CC(C)(CO)n1cc(C(=O)c2cncc(NC(=O)Cc3ccc(C(F)(F)F)cc3)c2)c2cncc(F)c21 [Example 7, N-{5-[7-Fluoro-1-(2-hydroxy-1,1-dimethyl-ethyl)-1H-pyrrolo[3,2-c]pyridine-3-carbonyl]-pyridin-3-yl}-2-(4-trifluoromethyl-phenyl)-acetamide]",8.18
11,"CC(C)n1cc(C(=O)c2ccnc(NC(=O)Cc3ccc(F)cc3F)c2)c2cnccc21 [Example 106, 2-(2,4-difluorophenyl)-N-(4-{[1-(propan-2-yl)-1H-pyrrolo[3,2-c]pyridin-3-yl]carbonyl}pyridin-2-yl)acetamide]",7.75
12,"CC(C)n1cc(C(=O)c2cc(NC(=O)Cn3ccc(C(F)(F)F)n3)ccn2)c2cnccc21 [Example 27, N-(2-{[1-(propan-2-yl)-1H-pyrrolo[3,2-c]pyridin-3-yl]carbonyl}pyridin-4-yl)-2[3-(trifluoromethyl)-1H-pyrazol-1-yl]acetamide]",7.05
13,"CC(C)n1cc(C(=O)c2cncc(NC(=O)Cn3cc(C4CC4)nn3)c2)c2cncc(F)c21 [Example 89, 2-(4-cyclopropyl-1H-1,2,3-triazol-1-yl)-N-(5-{[7-fluoro-1-(propan-2-yl)-1H-pyrrolo[3,2-c]pyridin-3-yl]carbonyl}pyridin-3-yl)acetamide]",7.08

# Other lines, results leading:
row,pIC50,SMILES
1,6.57,"CC(C)c1cn(CC(=O)Nc2cc(C(=O)c3cn(CCO)c4ccncc34)ccn2)nn1 [Example 159, N-(4-{[1-(2-hydroxyethyl)-1H-pyrrolo[3,2-c]pyridin-3-yl]carbonyl}pyridin-2-yl)-2-[4-(propan-2-yl)-1H-1,2,3-triazol-1-yl]acetamide]"
2,6.04,COCc1cn(CC(=O)Nc2cc(C(=O)c3cn(C(C)C)c4ccncc34)ccn2)nn1 [Example 176]
3,6.27,"CC(C)n1cc(C(=O)c2ccnc(NC(=O)Cc3cscn3)c2)c2cnccc21 [Example 181, N-(4-{[1-(propan-2-yl)-1H-pyrrolo[3,2-c]pyridin-3-yl]carbonyl}pyridin-2-yl)-2(1,3-thiazol-4-yl)acetamide]"
4,7.00,"CC(C)n1cc(C(=O)c2cncc(NC(=O)Cc3ccc(C#N)cn3)c2)c2cnccc21 [Example 139, 2-(5-cyanopyridin-2-yl)-N-(5-{[1-(propan-2-yl)-1H-pyrrolo[3,2-c]pyridin-3-yl]carbonyl}pyridin-3-yl)acetamide]"
5,5.37,"CC(C)c1ccnn1CC(=O)Nc1cc(C(=O)c2cn(CCO)c3ccncc23)ccn1 [Example 147, N-(4-{[1-(2-hydroxyethyl)-1H-pyrrolo[3,2-c]pyridin-3-yl]carbonyl}pyridin-2-yl)-2-[5-(propan-2-yl)-1H-pyrazol-1-yl]acetamide]"
6,7.34,"CC(C)n1cc(C(=O)c2ccnc(NC(=O)Cc3ccc(C#N)cn3)c2)c2cnccc21 [Example 138, 2(5-cyanopyridin-2-yl)-N-(4-{[1-(propan-2-yl)-1H-pyrrolo[3,2-c]pyridin-3-yl]carbonyl}pyridin-2-yl)acetamide]"
7,7.88,"CC(C)n1cc(C(=O)c2ccnc(NC(=O)Cc3ccc(F)cc3)c2)c2cnccc21 [Example 186, 2(4-fluorophenyl)-N-(4-{[1-(propan-2-yl)-1H-pyrrolo[3,2-c]pyridin-3-yl]carbonyl}pyridin-2-yl)acetamide]"
8,7.58,"CC(C)n1cc(C(=O)c2ccnc(NC(=O)Cc3ccccc3OC(F)(F)F)c2)c2cnccc21 [Example 182, N-(4-{[1-(propan-2-yl)-1H-pyrrolo[3,2-c]pyridin-3-yl]carbonyl}pyridin-2-yl)-2-[2-(trifluoromethoxy)phenyl]acetamide]"
9,5.01,"O=C(Cn1nccn1)Nc1cc(C(=O)c2cn(CCO)c3ccncc23)ccn1 [Example 158, N-(4-{[1-(2-hydroxyethyl)-1H-pyrrolo[3,2-c]pyridin-3-yl]carbonyl}pyridin-2-yl)-2-(2H-1,2,3-triazol-2-yl)acetamide]"
10,6.38,"CC(CO)n1cc(C(=O)c2cncc(NC(=O)Cc3ccc(C#N)cc3)c2)c2cncc(F)c21 (single isomer, unassigned) [Example 217, 2-(4-cyanophenyl)-N-(5-{[7-fluoro-1-(1-hydroxypropan-2-yl)-1H-pyrrolo[3,2-c]pyridin-3-yl]carbonyl}pyridin-3-yl)acetamide]"
11,7.37,"CC(C)(CO)n1cc(C(=O)c2cncc(NC(=O)Cn3ccc(C(F)(F)F)n3)c2)c2cnccc21 [Example 236, N-(5-{[1-(1-hydroxy-2-methylpropan-2-yl)-1H-pyrrolo[3,2-c]pyridin-3-yl]carbonyl}pyridin-3-yl)-2-[3-(trifluoromethyl)-1H-pyrazol-1-yl]acetamide]"
12,6.37,"O=C(Cc1ccc(F)cc1)Nc1cc(C(=O)c2cn(CCO)c3ccncc23)ccn1 [Example 148, 2-(4-fluorophenyl)-N-(4-{[1-(2-hydroxyethyl)-1H-pyrrolo[3,2-c]pyridin-3-yl]carbonyl}pyridin-2-yl)acetamide]"
13,7.87,"CC(C)n1cc(C(=O)c2ccnc(NC(=O)Cc3coc(C4CC4)n3)c2)c2cnccc21 [Example 189, 2-(2-cyclopropyl-1,3-oxazol-4-yl)-N-(4-{[1-(propan-2-yl)-1H-pyrrolo[3,2-c]pyridin-3-yl]carbonyl}pyridin-2-yl)acetamide]"
14,6.68,"CC(C)n1cc(C(=O)c2cc(NC(=O)Cc3ccc(C#N)cn3)ccn2)c2cnccc21 [Example 140, 2-(5-cyanopyridin-2-yl)-N-(2-{[1-(propan-2-yl)-1H-pyrrolo[3,2-c]pyridin-3-yl]carbonyl}pyridin-4-yl)acetamide]"
